The record followed here is ChEMBL document CHEMBL3046410, “Antioxidant activities and transition metal ion chelating studies of some hydroxyl Schiff base derivatives” (Med Chem Res, 2012).

By pIC50 is commonly meant −log10 of the IC50, conventionally taken in molar units.

pIC50: −log10 of the molar value. Active and inactive are the calls of the source. The rule behind the calls is not given here.

Data set [1] in a line: Binding affinity to Cu2+. The data set is classed as physicochemical.
Data set [2] can be described thus: Antioxidant activity assessed as Cu2+ chelating activity by fluorescence spectroscopy. The data set is classed as functional.
Data set [3] deals with Radical scavenging activity. As to the kind of experiment: Antioxidant activity assessed as inhibition of DPPH free radical. Format: functional.
A short description of data set [4]: Binding affinity to Fe2+.
Data set [5] in a line: Antioxidant activity assessed as Cu2+ quenching activity. The data set is classed as functional.
Data set [6] can be described thus: Antioxidant activity assessed as Fe2+ quenching activity. Format: functional.
The nature of data set [7]: Antioxidant activity assessed as Fe2+ chelating activity by fluorescence spectroscopy. The data set is classed as functional.
Data set [8] in a line: Antioxidant activity assessed as inhibition of ABTS free radical. Format: functional.

Turning to `Oc1ccccc1/C=N/c1ccccc1O`, the results for the Ka in data set [1] and in data set [4] were 1.26 ×10⁴ /M and 6.48 ×10³ /M, respectively. Also, the result in data set [2] and in data set [7] was Active. Besides, the pIC50 in data set [3] is 4.60; in data set [8], 5.29. Moreover, the KSV in data set [5] is 6.07 ×10⁴ /M; in data set [6] it was 6.7 ×10⁴ /M.

Consider `Oc1cccc(/N=C/C=C/c2ccccc2)c1`, for which the Ka came out at 3.51 ×10³ /M in data set [1] and 6.25 ×10³ /M in data set [4]. The pIC50 in data set [3] is 3.84; in data set [8], 5.40. For the same molecule, the values for the KSV in data set [5] and in data set [6] were 2.8 ×10³ /M and 8.91 ×10³ /M, respectively.

With `Oc1ccc(/N=C/c2ccco2)cc1`, the Ka is 0.85 ×10³ /M in data set [1] and 1.81 ×10³ /M in data set [4]. The pIC50 in data set [3] was 4.30; in data set [8] it was 5.21. In addition, the KSV stood at 1.17 ×10³ /M in data set [5] and 0.9 ×10³ /M in data set [6].

As to `Oc1cccc(/N=C/c2ccccc2)c1` [3-(BENZYLIDENEAMINO)PHENOL], the Ka came to 1.39 ×10⁴ /M in data set [1] and 1.47 ×10⁴ /M in data set [4]. Further, the negative-log IC50 (pIC50) was 3.33 in data set [3] and 4.48 in data set [8]. In addition, the KSV was determined as 5.2 ×10³ /M in data set [5] and 7.03 ×10³ /M in data set [6].

As for `Oc1cccc(/N=C/c2ccccc2O)c1`, the Ka in data set [1] is 3.02 ×10³ /M; in data set [4], 3.21 ×10³ /M. Besides, the pIC50 in data set [3] is 3.39; in data set [8], 5.43. The values for the KSV in data set [5] and in data set [6] were 1.1 ×10⁵ /M and 2.61 ×10⁴ /M, respectively.

As for `Oc1ccc(/N=C/C=C/c2ccccc2)cc1`, the Ka was 1.45 ×10⁴ /M in data set [1] and 2.47 ×10⁴ /M in data set [4]. The values for the negative-log IC50 (pIC50) in data set [3] and in data set [8] were 3.40 and 5.31, respectively. The figures for the KSV in data set [5] and in data set [6] were 2.49 ×10³ /M and 6.6 ×10³ /M, respectively.

`Cc1cc(C(C)(C)C)c(O)c(C(C)(C)C)c1` [BUTYLATED HYDROXYTOLUENE]: the figures for the negative-log IC50 (pIC50) in data set [3] and in data set [8] were 4.18 and 4.43, respectively.

With `Oc1ccc(/N=C/c2ccccc2)cc1` [4-(BENZYLIDENEAMINO)PHENOL], the Ka was found to be 3.17 ×10³ /M in data set [1] and 1.62 ×10⁴ /M in data set [4]. Moreover, the pIC50 is 4.15 in data set [3] and 5.22 in data set [8]. Further, the KSV in data set [5] was found to be 3.49 ×10³ /M; in data set [6], 4.09 ×10³ /M.

For the molecule `Oc1ccc(/N=C/c2ccccc2O)cc1`, the Ka in data set [1] was found to be 4.43 ×10³ /M; in data set [4], 9.67 ×10³ /M. For the same molecule, the values for the pIC50 in data set [3] and in data set [8] were 3.97 and 5.33, respectively. In addition, the KSV in data set [5] came to 7.21 ×10⁴ /M; in data set [6] it was 1.43 ×10⁵ /M.

`CN(C)c1ccc(/C=N/c2ccc(O)cc2)cc1`: the Ka came out at 3.05 ×10³ /M in data set [1] and 5.03 ×10³ /M in data set [4]. Further, the negative logarithm of the IC50 (pIC50) in data set [3] was 4.68; in data set [8], 5.38. Further, the KSV in data set [5] was 2.69 ×10⁴ /M; in data set [6], 7.4 ×10³ /M.

With `CN(C)c1ccc(/C=N/c2ccccc2O)cc1`, the Ka in data set [1] came out at 2.36 ×10⁴ /M; in data set [4], 7.3 ×10⁴ /M. Moreover, the negative logarithm of the IC50 (pIC50) in data set [3] was 4.97; in data set [8], 5.15. Moreover, the KSV in data set [5] is 1.53 ×10⁴ /M; in data set [6], 5.19 ×10³ /M.
